In US5102885A, “Imidazoquinoxaline compounds and their use” (Novo Nordisk A/S, priority 1989, dated 1992):

Test system: benzodiazepine receptors
Assay: In vivo displacement of 3H-flunitrazepam specific binding to brain benzodiazepine receptors in mice
Design: species or system mice (female, NMR)
Conditions: test substance i.p. 15 min before 3H-FNM i.v. (4 μCi), sacrificed 20 min after 3H-FNM, forebrain
From the text: The pharmaceutical properties of the compounds of the invention can be illustrated by determining their capability for displacing radioactive labelled flunitrazepam from benzodiazepine receptors.
The displacement activity of the compounds of the invention may be found by determining the ED50 value. The ED50 value represents the dose (mg/kg) of a test substance which causes the specific binding of flunitrazepam to benzodiazepine receptors in a living brain to be reduced to 50% of the control value.
Such an in vivo test is carried out as follows:
Twenty minutes after a dose of ^3 H-flunitrazepam (^3 H-FNM) (200 μCi/kg, i.v.) the amount of specific ^3 H-FNM binding to brain benzodiazepine receptors has reached its maximal value.
Suspensions of test substances (2 mg/ml) are prepared in 5% Duphasol-X (TM Duphar, castor oil-ethylene oxide derivative for emulsifying and solubilizing oil and other water-insoluble substances) by sonification for 10 min using a Branson B15 microtip ultrasonifier (setting 7). Groups of three mice (female, NMR, 18-22 grams) are injected with the test substance at 100 mg/kg intraperitoneally. Fifteen minutes after test substance administration the mice are challenged with 4 μCi intravenously of ^3 H-FNM (70-90 Ci/mole) in 200 μl physiological saline. Twenty minutes after ^3 H-FNM administration mice are sacrificed by decapitation, the forebrains rapidly excised (within 30 sec) and homogenized in 12 ml of icecold 25 mM KH2 PO4, pH 7.1, using an Ultra-Turrax homogenizer fitted with an N 10 shaft. Two aliquots of 1 ml are immediately filtered through Whatman GF/C glassfibre filters and washed with 2×5 ml of the above mentioned buffer. The amounts of radioactivity on the filters are determined by conventional scintillation counting. One group of untreated mice serves as control. One to three mice are injected with 25 μg/kg clonazepam i.p. 30 minutes before ^3 H-FNM to determine the amount of non-specific ^3 H-FNM binding, which should be between 8-15% of total binding. […]
The ED50 value is determined from dose response curves.

Row | Structure (SMILES) | ED50 (dose which inhibits 50% of specific 3H-flunitrazepam binding to benzodiazepine receptors in living brain) [mg/kg]
1 | CC(=O)CC(=O)c1ncn2c1c(=O)n(C(C)C)c1ccccc12 [Compound 4, 4,5-dihydro-5-isopropyl-4-oxo-3-(1,3-dioxobutyl)-imidazo-[1,5-a]quinoxaline] | 1.4
2 | CC(C)n1c(=O)c2c(C(=O)CC(=O)C3CC3)ncn2c2ccccc21 [Compound 2, 3-(3-cyclopropyl-1,3-dioxopropyl)-4,5-dihydro-5-isopropyl-4-oxo-imidazo[1,5-a]quinoxaline] | 1.5
3 | CC(C)(C)n1c(=O)c2c(C(=O)CC(=O)C3CC3)ncn2c2ccccc21 [Compound 6, 5-tert-butyl-3-(3-cyclopropyl-1,3-dioxopropyl)-4,5-dihydro-4-oxo-imidazo[1,5-a]quinoxaline] | 2.5
